Data as given in patent EP4748840A1, “IMIDAZO[1,2-A]PYRIDINE TYPE IRAK DEGRADATION AGENT AND USE THEREOF” (TAINUORUI (TIANJIN) BIOTECHNOLOGY CO., LTD, priority 2023, dated 2025).
Blank lines part the entries; values can stand above or below the compound they belong to.

What was measured:
IRAK4 = biological target: T1, IRAK4 (Homo sapiens, UniProt Q9NWZ3); assay: HiBiT-based intracellular degradation assay of THP1-HIBiT-IRAK4 cells; assay type: cell-based; conditions: half-maximal degradation concentration of IRAK4 protein, 24 h incubation
T1 construct: expressed in transfected cells; host or cells: THP1 (THP1-HIBiT-IRAK4 engineered line)
T1 sequence (Q9NWZ3 1-460): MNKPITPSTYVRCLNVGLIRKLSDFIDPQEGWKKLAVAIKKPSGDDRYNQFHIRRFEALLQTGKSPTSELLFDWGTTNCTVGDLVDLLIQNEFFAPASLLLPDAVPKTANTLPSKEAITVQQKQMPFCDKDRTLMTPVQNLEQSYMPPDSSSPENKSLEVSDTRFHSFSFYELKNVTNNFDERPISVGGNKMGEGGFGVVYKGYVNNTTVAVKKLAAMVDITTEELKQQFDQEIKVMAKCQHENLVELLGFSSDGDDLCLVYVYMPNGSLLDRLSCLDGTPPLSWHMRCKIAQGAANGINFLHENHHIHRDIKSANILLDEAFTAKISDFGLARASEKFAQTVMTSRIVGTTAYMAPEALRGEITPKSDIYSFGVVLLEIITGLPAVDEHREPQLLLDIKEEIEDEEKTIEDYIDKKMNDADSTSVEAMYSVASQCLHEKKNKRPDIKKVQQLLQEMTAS
Description: HiBiT-based intracellular degradation assay of THP1-HIBiT-IRAK4 cells
THP1-HIBiT-IRAK4 cells were cultured in RPMI 1640 medium supplemented with 10% fetal bovine serum (FBS) and 1% penicillin-streptomycin (PS) (37°C and 5% CO2). The THP1-HIBiT-IRAK4 cells were inoculated in a 384-well plate at 5000 cells/40 µL/well. Compound solutions with different concentrations were added at 40 nL/well and incubated for 24 h at 37°C in 5% CO2. HiBiT lysis detection reagents were added to the wells, the plate was incubated for 30 min at room temperature, and luminescence values were read on Envision. [formula]
The DC50 (half-maximal degradation concentration) of each compound was obtained using XLfit software and the following nonlinear fitting equation: Y = bottom + (top−bottom)/(1+10^(∧)((LogDC50−X)×Hillslope)). [formula]
X denotes a log value of the compound concentration.
Y denotes the degradation rate.
Table 1 lists the results of DC50 values of IRAK4 protein degradation. […]

[1] = In vivo pharmacokinetic study in mice; conditions: male CD1 mice; for F: oral bioavailability, Oral Administration (20 mg/kg) vs Intravenous Injection (2 mg/kg); for clearance / half-life / AUC(0-t): mouse, plasma
Description: In vivo pharmacokinetic study
The pharmacokinetic behaviors of Example 1 and Example 15 in mice were studied using the following experimental protocol to evaluate their pharmacokinetic characteristics.
The mice had free access to food and water before the test.
(§1) Approximately 0.03 mL of venous blood was collected from the dorsal metatarsal vein of each mouse separately after 0.033 h, 0.083 h, 0.25 h, 0.5 h, 1 h, 2 h, 4 h, 8 h, and 24 h since intravenous injection. The blood was placed in an EDTA-K2 tube and centrifuged for 5 min at 4000 g and 4°C. The plasma was separated. The concentration of the compound in the plasma was determined through liquid chromatography-tandem mass spectrometry.
as §1, with “after” for “after 0.033 h,”, “oral administration.” for “intravenous injection.”

[2] = Liver microsomal stability assay (mouse); assay type: in vitro ADME; conditions: Mouse liver microsomes 0.5 mg/mL, NADPH and UDPGA, 1 µM compound
Description: (§2) Liver microsomal stability assay
(§3) Microsomes were stored in a -80°C refrigerator, thawed in a 37°C water bath before use, and placed on ice after thawing. All other reagents were purchased from local suppliers.
(§4) In step 1, a reaction system was configured as follows:
(§5) In step 2, 40 µL of 10 mM NADPH solution and 40 µL of 20 mM UDPGA solution were added to the above reaction system, where the final concentrations of NADPH and UDPGA were 1 mM and 2 mM, respectively. 80 µL of ultrapure water was used as negative control to replace the NADPH and UDPGA solutions. The reaction system was pre-incubated for 10 min in a 37°C water bath. […]
(§6) All data calculations were performed using Microsoft Excel software. Peak areas were determined from extracted ion chromatograms and used for calculating the remaining percentage at each time point.
(§7) The remaining percentage was calculated by the following formula: remaining percentage (%) = (peakarearatiotime point/peakarearatio0 min) × 100. […]
(§8) An elimination rate constant (k) was determined through linear fitting of a natural logarithm of the remaining percentage of a parent drug versus time.
(§9) The half-life t1/2 was calculated from the elimination rate constant: t1/2 = 0.693/k.
(§10) The in vitro intrinsic clearance (µL/min/mg) was calculated by the following formula: invitroCLint = kV/N. [formula] […]

[3] = Liver microsomal stability assay (monkey); assay type: in vitro ADME; conditions: Monkey liver microsomes 0.5 mg/mL, NADPH and UDPGA, 1 µM compound
Description: as §2, §3, §4, §5, §6, §7, §8, §9, §10

[4] = Liver microsomal stability assay (rat); assay type: in vitro ADME; conditions: Rat liver microsomes 0.5 mg/mL, NADPH and UDPGA, 1 µM compound
Description: as §2, §3, §4, §5, §6, §7, §8, §9, §10

[5] = Liver microsomal stability assay (human); assay type: in vitro ADME; conditions: Human liver microsomes 0.5 mg/mL, NADPH and UDPGA, 1 µM compound
Description: as §2, §3, §4, §5, §6, §7, §8, §9, §10

[6] = Liver microsomal stability assay (dog); assay type: in vitro ADME; conditions: Dog liver microsomes 0.5 mg/mL, NADPH and UDPGA, 1 µM compound
Description: as §2, §3, §4, §5, §6, §7, §8, §9, §10

[7] = Intravenous Injection (2 mg/kg)

Compound: CC(C)(O)c1cc2nc(C3CCN(CC4CCN(c5ccc6c(c5)C(=O)N(C5CCC(=O)NC5=O)C6=O)CC4)CC3)cn2cc1NC(=O)c1cccc(C(F)(F)F)n1 (centres unmarked) [Example 1]
DC50 (IRAK4): 4.53 nM
F [1]: 12.1%
clearance [1, 7]: 59.5 mL/min/kg
half-life [1, 7]: 7.88 h
half-life ([1]; Oral Administration (20 mg/kg)): 6.81 h
AUC(0-t) [1, 7]: 550 ng·h/mL
AUC(0-t) ([1]; Oral Administration (20 mg/kg)): 626 ng·h/mL

half-life at 1 µM [2]: 2.39 h
microsomal CLint at 1 µM [2]: 9.67 µL/min/mg
half-life at 1 µM [3]: 3.2 h
microsomal CLint at 1 µM [3]: 7.22 µL/min/mg
half-life at 1 µM [4]: 2.23 h
microsomal CLint at 1 µM [4]: 10.4 µL/min/mg
half-life at 1 µM [5]: 6.68 h
microsomal CLint at 1 µM [5]: 3.46 µL/min/mg
half-life at 1 µM [6]: 4.33 h
microsomal CLint at 1 µM [6]: 5.34 µL/min/mg
DC50 (IRAK4): 1.62 nM
F [1]: 61.7%
clearance [1, 7]: 37.2 mL/min/kg
half-life [1, 7]: 8.05 h
half-life ([1]; Oral Administration (20 mg/kg)): 8.01 h
AUC(0-t) [1, 7]: 870 ng·h/mL
AUC(0-t) ([1]; Oral Administration (20 mg/kg)): 4760 ng·h/mL
Compound: CC(C)(O)c1cc2nc(C3CCN(CC4CCN(c5cc6c(cc5F)C(=O)N(C5CCC(=O)NC5=O)C6=O)CC4)CC3)cn2cc1NC(=O)c1cccc(C(F)(F)F)n1 (centres unmarked) [Example 15, N-(2-(1-((1-(2-(2,6-dioxopiperidin-3-yl)-6-fluoro-1,3-dioxoisoindolin-5-yl)piperidin-4-yl)methyl)piperidin-4-yl)-7-(2-hydroxypropan-2-yl)imidazo[1,2-a]pyridin-6-yl)-6-(trifluoromethyl)pyridine-2-carboxamide]

DC50 (IRAK4): 4.76 nM
Compound: CC(C)(O)c1cc2nc(C3CCN(CCN4CCN(c5cc6c(cc5F)C(=O)N(C5CCC(=O)NC5=O)C6=O)CC4)CC3)cn2cc1NC(=O)c1cccc(C(F)(F)F)n1 (centres unmarked) [Example 22, N-(2-(1-(2-(4-(2-(2,6-dioxopiperidin-3-yl)-6-fluoro-1,3-dioxoisoindolin-5-yl)piperazin-1-yl)ethyl)piperidin-4-yl)-7-(2-hydroxypropan-2-yl)imidazo[1,2-a]pyridin-6-yl)-6-(trifluoromethyl)pyridine-2-carboxamide]

Compound: CC(C)(O)c1cc2nc(C3CCN(CC4CCN(c5cc6c(cc5F)C(=O)N(C5CCC(=O)NC5=O)C6)CC4)CC3)cn2cc1NC(=O)c1cccc(C(F)(F)F)n1 (centres unmarked) [Example 23, N-(2-(1-((1-(2-(2,6-dioxopiperidin-3-yl)-6-fluoro-1-oxoisoindolin-5-yl)piperidin-4-yl)methyl)piperidin-4-yl)-7-(2-hydroxypropan-2-yl)imidazo[1,2-a]pyridin-6-yl)-6-(trifluoromethyl) pyridine-2-carboxamide]
DC50 (IRAK4): 0.95 nM

DC50 (IRAK4): 1.87 nM
Compound: CC(C)(O)c1cc2nc(C3CCN(CC4C5CN(c6ccc7c(c6)C(=O)N(C6CCC(=O)NC6=O)C7=O)CC45)CC3)cn2cc1NC(=O)c1cccc(C(F)(F)F)n1 (centres unmarked) [Example 24, N-(2-(1-((3-(2-(2,6-dioxopiperidin-3-yl)-1,3-dioxoisoindolin-5-yl)-3-azabicyclo[3.1.0]hexan-6-yl)methyl)piperidin-4-yl)-7-(2-hydroxypropan-2-yl)imidazo[1,2-a]pyridin-6-yl)-6-(trifluoromethyl)pyridine-2-carboxamide]

DC50 (IRAK4): 12.8 nM
Compound: CC(C)(O)c1cc2nc(C3CCN(CC4CCN(c5cc6c(cc5F)C(=O)N([C@@H]5CCC(=O)NC5=O)C6=O)CC4)CC3)cn2cc1NC(=O)c1cccc(C(F)(F)F)n1 [Example 25, (R)-N-(2-(1-((1-(2-(2,6-dioxopiperidin-3-yl)-6-fluoro-1,3-dioxoisoindolin-5-yl)piperidin-4-yl)methyl)piperidin-4-yl)-7-(2-hydroxypropan-2-yl)imidazo[1,2-a]pyridin-6-yl)-6-(trifluoromethyl)pyridine-2-carboxamide]

DC50 (IRAK4): 2.15 nM
Compound: CC(C)(O)c1cc2nc(C3CCN(CC4CCN(c5cc6c(cc5F)C(=O)N([C@H]5CCC(=O)NC5=O)C6=O)CC4)CC3)cn2cc1NC(=O)c1cccc(C(F)(F)F)n1 [Example 26, (S)-N-(2-(1-((1-(2-(2,6-dioxopiperidin-3-yl)-6-fluoro-1,3-dioxoisoindolin-5-yl)piperidin-4-yl)methyl)piperidin-4-yl)-7-(2-hydroxypropan-2-yl)imidazo[1,2-a]pyridin-6-yl)-6-(trifluoromethyl)pyridine-2-carboxamide]
